These results are taken from patent publication US5861475A, “Compositions and methods for the inhibition of phagocytes” (Research Corporation Technologies, Inc., priority 1996, dated 1999).

Where no end group is shown, it is not given here.

In data set [1] the test system is PMN. In words: PMN viability by LDH release. The procedure: PMN viability after exposure to NIP (seq id no:1) or control peptide for varying amounts of time was assessed by measuring LDH release using a commercially available kit (Sigma).
In general terms: Release of lactate dehydrogenase indicates damage to the cell membrane.

Data set [2] relates to polymorphonuclear neutrophils (PMN). In kind it is cell-based. The conditions noted are these: 10 nM human recombinant C5a; cells concomitantly exposed to peptide and agonist; read-out: IC50 for C5a-induced chemotaxis. On the procedure: Whole blood was obtained from a normal human volunteer population and PMN were isolated by ficoll-hypaque gradient centrifugation followed dextran sedimentation, as described by Cooper et al., (1991).
The degree of inhibition of PMN chemotaxis by natural purified inhibitor or synthetic peptides was determined as described by Cooper et al. (1991) using 100 nM formyl-methionyl-leucyl-phenylalanine (fMLP), 10 nM human recombinant C5a or 10 nM leukotriene B4 and multiwell chemotaxis chambers (Neuroprobe Inc., Bethesda, Md.) employing nitrocellulose membranes. Isoelectric focused fractions or HPLC elution fractions were diluted 1:1000 in a final concentration of the above agonists. Controls included buffer alone or C5a diluted in buffer alone.
22 μl of samples were placed in bottom wells of the chemotaxis chamber, a nitrocellulose membrane with 3 μm pores was overlaid as was a rubber gasket. […] Chemotaxis was assessed by comparing the maximal distance migrated to agonist alone or in the presence of an irrelevant peptide (μm minus migration to buffer alone) and comparing to the distance migrated to agonist plus elution fractions or synthetic peptides. The percentage of total cells migrating 10 μm increments from 0 to 120 μm was also determined by image analysis (Olympus Instruments) and treatment groups were compared to controls. […]

The subject of data set [3] is PMN. Nature of the data set: PMN cytosolic calcium concentration (Indo-loaded PMN). It is filed as cell-based, human.

With Triton [reference compound], the “[LDH] of supernatant” value in data set [1] (0.1%, 5 min exposure) is reported as 252 ± 6.5.
A word on the IC50: it is the concentration needed to halve the response being measured. “EGSYFFGDNA [NIP-Arg, Glu-Gly-Ser-Tyr-Phe-Phe-Gly-Asp-Asn-Ala]”: the IC50 in data set [2] is 6 µM.
“REGSYFFGDNA [NIP, Arg-Glu-Gly-Ser-Tyr-Phe-Phe-Gly-Asp-Asn-Ala]”: the IC50 in data set [2] came out at 2 µM. For the same molecule, the “[LDH] of supernatant” value in data set [1] (5 μM, 5 min exposure) stood at 37.2 ± 6.3; in data set [1] (5 μM, 15 min exposure), 40.8 ± 3.7; in data set [1] (5 μM, 30 min exposure), 30.2 ± 4.25; in data set [1] (5 μM, 60 min exposure), 35 ± 5.5. The “cellular viability as determined by LDH release” value in data set [1] (concentrations that inhibited chemotaxis and oxidant production) was “did not significantly alter”.
With `COc1cc(N(CC(=O)OCOC(C)=O)CC(=O)OCOC(C)=O)c2nc(COc3cc(C)ccc3N(CC(=O)OCOC(C)=O)CC(=O)OCOC(C)=O)ccc2c1` [Quin 2 AM], the “buffering of rises in cytosolic calcium concentrations” value in data set [3] (10 μM, after 1 μM fMLP stimulation) is given as “significantly buffered”.
As for “SNRGFAYFDEG [Control peptide, Ser-Asn-Arg-Gly-Phe-Ala-Tyr-Phe-Asp-Glu-Gly, reference compound]”, the “[LDH] of supernatant” value in data set [1] (5 μM, 60 min exposure) is 39.2 ± 6.5.
Consider pertussis toxin, for which, in data set [3] (pertussis toxin pretreatment), the “ionomycin-induced rise in cytosolic calcium” value is reported as “no effect” and the “rise in cytosolic calcium concentration induced by 1 μM FMLP” value is “Attenuation”.
